In patent US7271261B2, “Substituted benzimidazoles and imidazo-[4,5]-pyridines” (Ortho-McNeil Pharmaceutical, Inc., priority 2001, dated 2007):

Key:
[1] = test system: tumor cells from an established tumor cell line; test: Effect of Cds1 inhibitors on tumor growth in murine xenograft models; format: in vivo; settings: xenograft in athymic nu/nu mice, compound plus local irradiation
Method: Effect of Cds1 Inhibitors on Tumor Growth in Murine Xenograft Models
One×10^6 to ten×10^6 tumor cells from an established tumor cell line are injected in the hind limbs of athymic nu/nu mice. Tumors are allowed to grow until they reach 30-100 mm^3. At that time mice are randomized into different treatment groups, and compound or vehicle is administered by injection or oral gavage. […] After this treatment tumor growth rate is followed by measurement of tumor size twice weekly in three orthogonal directions, which is used to calculate the tumor volume.

[2] = test system: cells from an established tumor line; test: Effect of Cds1 inhibitory compounds on tumor cell line clonogenic survival; format: cell-based; settings: compound exposure 12 to 48 h with DNA-damaging second agent; compared to control group having no compound
Method: Typically 3 to 300 cells from an established tumor line were plated per cm^2 in petri dishes in the appropriate growth medium at 37° C. Cells were exposed to compounds dissolved in the growth medium from appropriately formulated stock solutions for times ranging from 12 to 48 h. During the course of compound exposure the cells were treated with a second agent with DNA-damaging capabilities, such as ionizing radiation or certain chemotherapeutic compounds. After this treatment regimen cells were incubated in growth medium containing no compound for a period of 7 to 14 days. At that time the cells were fixed with methanol and stained with 0.25% crystal violet. The number of colonies of cells exceeding 50 cells was determined for each treatment, and this number was used to calculate the effect of compounds on the survival of cells.

[3] = test system: spleen cells; test: Radiation-induced apoptosis in splenocytes in vivo; settings: female C57/BL mice, 4Gy whole-animal γ-radiation, compared to animals dosed with vehicle alone
Method: Determination of the Effect of Cds1 Inhibitory Compounds on Radiation-Induced Apoptosis in Splenocytes in vivo
Female C57/BL mice, 6-8 weeks of age, were dosed by oral gavage or by injection with Cds1 inhibitory compound before and at regular intervals after radiation exposure. One to three hours after first compound dose, the animals were irradiated with γ-rays administered to the whole animal at a dose between 0.5 and 4 Gy. At times between 4 and 24 h after irradiation, the animals were sacrificed, and the tissues of interest were excised. […] Briefly, cells or tissues are fixed with formaldehyde and permeabilized with ethanol, and DNA ends are then labelled by attaching nucleotide derivatives such as BrdUTP using the enzyme terminal deoxynucleotidyl transferase. DNA ends can then be detected by incubating the cells or tissues with fluorescently-labelled antibodies reactive with BrdU. Quantification can be done by laser scanning cytometry, by visual microscopical examination or by FACS.

[4] = test system: spleen B cells; test: Radiation-induced apoptosis in isolated primary cells (Annexin V staining); format: cell-based, C57/BL6 mice; settings: isolated C57/BL6 spleen cells, 0.5-1 Gy 137Cs γ-radiation, Annexin V/propidium iodide FACS 6-24 h after irradiation
Method: Determination of the Effect of Cds1 Inhibitory Compounds on Radiation-Induced Apoptosis in Isolated Primary Cells
Spleen cells were isolated from C57/BL6 mice as follows: Spleens were disrupted by grinding between two frosted glass slides, and cells were passed through a cell strainer. Erythrocytes were lysed by incubation in ammonium chloride solution followed by careful washing of cells in isotonic medium. The spleen cells were plated in 60 mm petri dishes at 5×10^6 cells/mL in RPMI medium containing 10% fetal calf serum and Cds1 inhibitor. […] Determination of apoptotic cells by Annexin V staining was performed using the Annexin V-FITC Apoptosis Detection Kit™ (Cat# PF032 Oncogene Research Products) according to the manufacturer's instructions. Briefly, 6-24 h after irradiation, the cells were washed with buffered isotonic salt solution and suspended at 1×10^6 cells/mL in binding buffer (10 mM Hepes pH 7.4, 150 mM NaCl, 2.5 mM CaCl2, 1 mM MgCl2, 4% bovine serum albumin) containing 80 ng/mL Annexin V labelled with FITC and 0.4 μg/mL anti-B220 antibody labelled with allophycocyanin. The cells were then pelleted and resuspended in binding buffer containing 0.6 μg/mL propidium iodide. The stained cells were analyzed on a FACS machine (Fluorescence Activated Cell Sorter™, Becton Dickinson). […] Fraction of non-apoptotic B-cells or total cells were determined separately based on staining with the B220 antibody mentioned above.

Row | Compound | protection of spleen B cells from radiation-induced apoptosis [4] | also measured
1 | NC(=O)c1ccc2[nH]c(-c3ccc(Oc4ccc(Cl)cc4)cc3)nc2c1 [Example 1, 2-[4-(4-Chloro-phenoxy)-phenyl]-1H-benzoimidazole-5-carboxylic acid amide] | protected spleen B cells from radiation-induced apoptosis | tumor growth rate (tumor volume) [1]: inconclusive; number of colonies of cells (clonogenic survival) [2]: decrease in the number of colonies of cells; protection of spleen cells from apoptosis [3]: protection of spleen cells from apoptosis was observed
2 | NC(=O)c1ccc2[nH]c(-c3ccc(Oc4ccc5ccccc5c4)cc3)nc2c1 [Example 9, 2-[4-(2-Naphthyloxy)-phenyl]-1H-benzoimidazole-5-carboxylic acid amide] | protected spleen B cells from radiation-induced apoptosis | –
3 | NC(=O)c1ccc2[nH]c(-c3ccc(Oc4ccc(Br)cc4)cc3)nc2c1 [Example 11, 2-[4-(4-Bromo-phenoxy)-phenyl]-1H-benzoimidazole-5-carboxylic acid amide] | protected spleen B cells from radiation-induced apoptosis | –
4 | NC(=O)c1ccc2[nH]c(-c3ccc(Sc4ccc(F)c(Cl)c4)cc3)nc2c1 [Example 38, 2-[4-(3-Chloro-4-fluoro-phenylsulfanyl)-phenyl]-1H-benzoimidazole-5-carboxylic acid amide] | protected spleen B cells from radiation-induced apoptosis | –
5 | NC(=O)c1ccc2[nH]c(-c3ccc(Sc4ccc(Cl)cc4)nc3)nc2c1 [Example 42, 2-[6-(4-Chloro-phenylsulfanyl)-pyridin-3-yl]-1H-benzoimidazole-5-carboxylic acid amide] | protected spleen B cells from radiation-induced apoptosis | –
6 | Cc1ccc(Sc2ccc(-c3nc4cc(C(N)=O)ccc4[nH]3)cn2)cc1 [Example 43, 2-[6-(4-Methyl-phenylsulfanyl)-pyridin-3-yl]-1H-benzoimidazole-5-carboxylic acid amide] | protected spleen B cells from radiation-induced apoptosis | –
7 | NC(=O)c1ccc2[nH]c(-c3ccc(Oc4ccc5c(c4)OCO5)cc3)nc2c1 [Example 84, 2-[4-(Benzo[1,3]dioxol-5-yloxy)-phenyl]-1H-benzoimidazole-5-carboxylic acid amide] | protected spleen B cells from radiation-induced apoptosis | –
8 | NC(=O)c1ccc2[nH]c(-c3ccc(Sc4ccc(O)cc4)cc3)nc2c1 [Example 87, 2-[4-(4-Hydroxy-phenylsulfanyl)-phenyl]-1H-benzoimidazole-5-carboxylic acid amide] | protected spleen B cells from radiation-induced apoptosis | –
9 | NC(=O)c1ccc2[nH]c(-c3ccc(Oc4ccc(Br)c(O)c4)cc3)nc2c1 [Example 88, 2-[4-(4-Bromo-3-hydroxy-phenoxy)-phenyl]-1H-benzoimidazole-5-carboxylic acid amide] | protected spleen B cells from radiation-induced apoptosis | –
10 | NS(=O)(=O)c1ccc2[nH]c(-c3ccc(Oc4ccc(Cl)cc4)cc3)nc2c1 [Example 94, 2-[4-(4-Chloro-phenoxy)-phenyl]-1H-benzoimidazole-5-sulfonic acid amide] | protected spleen B cells from radiation-induced apoptosis | –
11 | NC(=O)c1ccc2[nH]c(-c3ccc(Oc4ccc(I)cc4)cc3)nc2c1 [Example 97, 2-[4-(4-Iodo-phenoxy)-phenyl]-1H-benzoimidazole-5-carboxylic acid amide] | protected spleen B cells from radiation-induced apoptosis | –
